From patent US11155555B2, “Compounds” (Janssen Pharmaceutica NV, priority 2015, dated 2021)
pKd: −log10 of the molar value.

What was measured:
[1] = target: T1, FGFR1 (Homo sapiens, UniProt P11362); test: KINOMEscan enzyme binding assay FGFR1; details: KINOMEscan (DiscoveRx); pKd = -log Kd, Kd in M
T1 construct: purchased DiscoveRx Corporation (assay service)
Procedure: (§1) Enzyme Binding Assays (KINOMEscan®) Kinase enzyme binding affinities of compounds disclosed herein were determined using the KINOMEscan® technology performed by DiscoveRx Corporation, San Diego, Calif., USA (www.kinomescan.com). Table A2 reports the obtained pKd values, with Kd (M) being the inhibitor binding constant value and with pKd being −log Kd: […]

[2] = target: T2, FGFR4 (Homo sapiens, UniProt P22455); test: KINOMEscan enzyme binding assay FGFR4; details: KINOMEscan (DiscoveRx); pKd = -log Kd, Kd in M
T2 construct: purchased DiscoveRx Corporation (assay service)
T2 sequence (P22455 22-802): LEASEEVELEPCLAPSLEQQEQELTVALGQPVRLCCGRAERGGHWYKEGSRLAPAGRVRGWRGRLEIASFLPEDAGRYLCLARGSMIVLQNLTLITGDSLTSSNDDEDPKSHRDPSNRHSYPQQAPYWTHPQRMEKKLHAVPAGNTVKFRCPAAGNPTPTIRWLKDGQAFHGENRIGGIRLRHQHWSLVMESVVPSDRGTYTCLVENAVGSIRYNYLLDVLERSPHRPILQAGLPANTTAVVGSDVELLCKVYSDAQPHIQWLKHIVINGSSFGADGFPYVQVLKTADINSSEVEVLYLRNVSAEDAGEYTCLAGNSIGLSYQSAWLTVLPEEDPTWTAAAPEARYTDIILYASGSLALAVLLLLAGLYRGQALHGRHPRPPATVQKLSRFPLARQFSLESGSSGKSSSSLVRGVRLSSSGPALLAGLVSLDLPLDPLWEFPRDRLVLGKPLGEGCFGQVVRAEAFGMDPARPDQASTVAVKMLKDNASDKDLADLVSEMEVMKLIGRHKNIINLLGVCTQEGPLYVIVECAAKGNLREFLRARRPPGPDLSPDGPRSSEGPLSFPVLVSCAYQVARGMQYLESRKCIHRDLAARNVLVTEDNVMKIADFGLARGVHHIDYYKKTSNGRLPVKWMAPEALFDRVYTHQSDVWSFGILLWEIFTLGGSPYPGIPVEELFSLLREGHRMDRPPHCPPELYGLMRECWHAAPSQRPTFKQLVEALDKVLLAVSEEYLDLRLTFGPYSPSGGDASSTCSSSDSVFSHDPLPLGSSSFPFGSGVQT
Procedure: as §1

[3] = target: T3, FGFR3 (Homo sapiens, UniProt P22607); test: KINOMEscan enzyme binding assay FGFR3; details: KINOMEscan (DiscoveRx); pKd = -log Kd, Kd in M
T3 construct: purchased DiscoveRx Corporation (assay service)
T3 sequence (P22607 23-806): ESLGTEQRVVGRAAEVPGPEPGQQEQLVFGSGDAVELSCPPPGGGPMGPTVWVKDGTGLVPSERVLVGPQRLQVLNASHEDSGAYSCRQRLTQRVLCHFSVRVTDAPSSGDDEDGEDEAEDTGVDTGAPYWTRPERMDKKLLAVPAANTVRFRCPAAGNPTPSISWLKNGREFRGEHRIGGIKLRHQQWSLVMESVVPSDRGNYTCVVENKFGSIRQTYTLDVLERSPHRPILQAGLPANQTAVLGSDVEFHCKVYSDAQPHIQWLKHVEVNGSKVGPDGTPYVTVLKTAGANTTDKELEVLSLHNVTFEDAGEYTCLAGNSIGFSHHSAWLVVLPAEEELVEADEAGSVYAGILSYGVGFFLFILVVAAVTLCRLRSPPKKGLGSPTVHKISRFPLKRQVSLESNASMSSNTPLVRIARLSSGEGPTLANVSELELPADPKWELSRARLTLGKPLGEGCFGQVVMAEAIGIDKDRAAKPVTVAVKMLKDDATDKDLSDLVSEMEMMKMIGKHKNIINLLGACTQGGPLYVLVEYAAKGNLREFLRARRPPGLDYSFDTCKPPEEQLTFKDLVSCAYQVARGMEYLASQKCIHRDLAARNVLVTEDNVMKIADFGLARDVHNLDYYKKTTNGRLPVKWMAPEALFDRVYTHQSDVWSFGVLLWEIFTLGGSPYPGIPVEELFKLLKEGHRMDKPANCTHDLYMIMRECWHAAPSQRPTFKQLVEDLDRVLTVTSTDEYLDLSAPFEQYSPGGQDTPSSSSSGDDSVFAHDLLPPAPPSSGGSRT
Procedure: as §1

[4] = target: T4, VEGFR2 (Homo sapiens, UniProt P35968); test: KINOMEscan enzyme binding assay VEGFR2; details: KINOMEscan (DiscoveRx); pKd = -log Kd, Kd in M
T4 construct: purchased DiscoveRx Corporation (assay service)
T4 sequence (P35968 20-1356): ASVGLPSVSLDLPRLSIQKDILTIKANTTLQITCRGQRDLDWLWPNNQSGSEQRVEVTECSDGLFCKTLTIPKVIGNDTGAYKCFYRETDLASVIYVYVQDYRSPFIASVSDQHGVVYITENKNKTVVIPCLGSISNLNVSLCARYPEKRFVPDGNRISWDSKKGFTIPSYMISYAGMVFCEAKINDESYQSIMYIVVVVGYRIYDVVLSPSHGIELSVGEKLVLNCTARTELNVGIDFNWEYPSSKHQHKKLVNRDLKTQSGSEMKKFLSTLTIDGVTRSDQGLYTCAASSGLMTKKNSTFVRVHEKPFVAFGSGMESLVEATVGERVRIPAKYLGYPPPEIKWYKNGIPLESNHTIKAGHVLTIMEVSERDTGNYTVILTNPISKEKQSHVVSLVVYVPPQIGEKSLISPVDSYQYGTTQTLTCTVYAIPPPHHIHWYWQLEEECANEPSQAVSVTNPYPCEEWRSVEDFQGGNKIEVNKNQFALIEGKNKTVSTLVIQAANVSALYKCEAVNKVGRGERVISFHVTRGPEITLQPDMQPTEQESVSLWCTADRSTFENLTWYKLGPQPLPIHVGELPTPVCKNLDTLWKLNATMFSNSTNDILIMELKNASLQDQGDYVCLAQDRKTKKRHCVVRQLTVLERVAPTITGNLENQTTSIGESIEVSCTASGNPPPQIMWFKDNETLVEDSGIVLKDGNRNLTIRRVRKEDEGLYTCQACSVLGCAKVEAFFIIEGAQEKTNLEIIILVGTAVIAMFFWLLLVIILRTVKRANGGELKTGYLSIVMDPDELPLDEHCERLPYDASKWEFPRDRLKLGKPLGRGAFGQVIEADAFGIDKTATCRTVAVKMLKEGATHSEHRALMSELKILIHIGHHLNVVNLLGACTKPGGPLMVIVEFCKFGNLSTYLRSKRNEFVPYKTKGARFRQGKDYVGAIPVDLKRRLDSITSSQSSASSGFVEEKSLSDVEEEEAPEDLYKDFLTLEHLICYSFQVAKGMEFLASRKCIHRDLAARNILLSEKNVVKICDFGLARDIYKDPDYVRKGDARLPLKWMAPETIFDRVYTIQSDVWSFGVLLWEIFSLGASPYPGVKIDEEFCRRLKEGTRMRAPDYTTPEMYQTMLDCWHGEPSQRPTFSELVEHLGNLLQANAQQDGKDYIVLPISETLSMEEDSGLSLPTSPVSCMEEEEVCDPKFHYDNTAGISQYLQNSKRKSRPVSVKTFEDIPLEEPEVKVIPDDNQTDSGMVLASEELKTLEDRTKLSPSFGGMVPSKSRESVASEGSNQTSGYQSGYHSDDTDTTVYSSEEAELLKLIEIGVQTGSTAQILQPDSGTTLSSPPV
Procedure: as §1

[5] = target: T5, FGFR2 (Homo sapiens, UniProt P21802); test: KINOMEscan enzyme binding assay FGFR2; details: KINOMEscan (DiscoveRx); pKd = -log Kd, Kd in M
T5 construct: purchased DiscoveRx Corporation (assay service)
T5 sequence (P21802 22-821): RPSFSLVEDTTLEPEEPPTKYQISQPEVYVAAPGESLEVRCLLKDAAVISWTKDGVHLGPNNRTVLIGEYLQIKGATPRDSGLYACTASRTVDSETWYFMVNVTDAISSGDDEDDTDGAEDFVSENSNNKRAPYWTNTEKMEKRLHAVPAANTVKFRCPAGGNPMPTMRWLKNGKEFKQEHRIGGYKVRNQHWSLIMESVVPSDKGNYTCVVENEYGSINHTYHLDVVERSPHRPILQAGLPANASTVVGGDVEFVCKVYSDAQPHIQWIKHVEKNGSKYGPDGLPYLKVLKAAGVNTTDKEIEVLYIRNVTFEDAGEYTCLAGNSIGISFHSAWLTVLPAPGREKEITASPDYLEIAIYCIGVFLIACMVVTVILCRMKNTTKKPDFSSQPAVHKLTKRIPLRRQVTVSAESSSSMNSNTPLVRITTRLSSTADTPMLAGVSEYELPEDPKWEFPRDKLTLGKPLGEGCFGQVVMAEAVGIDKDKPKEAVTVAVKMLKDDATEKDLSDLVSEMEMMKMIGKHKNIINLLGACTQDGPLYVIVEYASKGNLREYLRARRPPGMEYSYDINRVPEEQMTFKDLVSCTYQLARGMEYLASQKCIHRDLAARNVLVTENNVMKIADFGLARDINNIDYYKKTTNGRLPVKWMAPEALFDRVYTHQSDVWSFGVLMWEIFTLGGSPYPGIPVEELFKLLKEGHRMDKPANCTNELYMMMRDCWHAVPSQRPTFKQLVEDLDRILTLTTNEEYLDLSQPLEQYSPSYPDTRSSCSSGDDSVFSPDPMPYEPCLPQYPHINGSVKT
Procedure: as §1

T1 sequence (P11362 22-822): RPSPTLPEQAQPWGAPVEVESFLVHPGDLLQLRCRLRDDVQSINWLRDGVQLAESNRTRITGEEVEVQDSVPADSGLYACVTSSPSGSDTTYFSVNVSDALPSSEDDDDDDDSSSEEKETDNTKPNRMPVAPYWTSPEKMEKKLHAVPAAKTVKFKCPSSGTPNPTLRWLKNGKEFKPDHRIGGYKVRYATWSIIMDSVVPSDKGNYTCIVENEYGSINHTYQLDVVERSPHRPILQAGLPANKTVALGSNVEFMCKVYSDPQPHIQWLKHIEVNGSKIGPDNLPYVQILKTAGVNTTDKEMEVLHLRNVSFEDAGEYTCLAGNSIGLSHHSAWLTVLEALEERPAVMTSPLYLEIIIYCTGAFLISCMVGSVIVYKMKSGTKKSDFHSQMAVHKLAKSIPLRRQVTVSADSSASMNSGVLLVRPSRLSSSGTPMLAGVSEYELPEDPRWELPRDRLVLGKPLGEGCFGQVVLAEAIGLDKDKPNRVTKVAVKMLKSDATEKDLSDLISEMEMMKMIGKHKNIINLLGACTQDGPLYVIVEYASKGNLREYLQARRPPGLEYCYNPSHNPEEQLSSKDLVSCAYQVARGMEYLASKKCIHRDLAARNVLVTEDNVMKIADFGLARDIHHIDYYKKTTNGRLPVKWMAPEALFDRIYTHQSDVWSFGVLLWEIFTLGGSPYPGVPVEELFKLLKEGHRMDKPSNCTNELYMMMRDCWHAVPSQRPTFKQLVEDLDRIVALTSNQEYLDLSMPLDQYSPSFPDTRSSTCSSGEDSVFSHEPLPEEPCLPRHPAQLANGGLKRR

Row | pKd [1] | melting point | pKd [2] | pKd [3] | pKd [4] | pKd [5] | SMILES
1 | 6.01 | – | < 5.52 | < 5.52 | < 5.52 | < 5.52 | CC(C)N1CCN(c2cc(O)cc(O)c2F)c2ccc3ncc(-c4cnn(C)c4)nc3c2C1 [Compound 9]
2 | 8.41 | – | 7.22 | 8.05 | 6.91 | 7.35 | COc1cc(O)cc(N2CCN(C(C)C)Cc3c2ccc2ncc(-c4cnn(C)c4)nc32)c1F [Compound 11]
3 | 8.51 | – | 7.42 | 7.97 | 6.94 | 7.71 | COc1cc(OC)c(F)c(N2CCN(C(C)C)Cc3c2ccc2ncc(-c4cnn(C)c4)cc32)c1F [Compound 12]
4 | 8.64 | – | 7.74 | 8.10 | 6.56 | 7.40 | COc1cc(OC)c(F)c(N2CCN(C(C)C)Cc3c2ccc2ncc(-c4cn[nH]c4)cc32)c1 [Compound 16]

More lines, now with the values behind:

Row | SMILES | pKd [1] | melting point | pKd [2] | pKd [3] | pKd [4] | pKd [5]
5 | COc1cc(OC)c(F)c(N2CCN(C(C)C)Cc3c2ccc2ncc(-c4cnn(C)c4)nc32)c1 [Compound 1] | 9.10 | 166 °C | 7.96 | 8.62 | 7.34 | 8.37
6 | COc1cc(OC)c(F)c(N2CCN(C(C)C)Cc3c2ccc2ncc(-c4cnn(C)c4)cc32)c1 [Compound 2] | 8.83 | – | 8.05 | 8.38 | 7.03 | 8.22
7 | COc1cc(OC)c(F)c(N2CCN(C(C)C)Cc3c2ccc2ncc(-c4cn[nH]c4)nc32)c1 [Compound 3] | 8.81 | – | 7.80 | 8.26 | 7.15 | 7.93
8 | COc1cc(OC)c(Cl)c(N2CCN(C(C)C)Cc3c2ccc2ncc(-c4cnn(C)c4)nc32)c1 [Compound 4] | 8.68 | – | 7.56 | 8.13 | 7.23 | 7.72
9 | COc1cc(OC)c(Cl)c(N2CCN(C(C)C)Cc3c2ccc2ncc(-c4cnn(C)c4)nc32)c1Cl [Compound 5] | 8.14 | – | 7.11 | 7.85 | 6.58 | 7.57
